GI50 and TGI data for eight molecules are collected here from PubChem BioAssay (NCI).

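Step 1: Grow cells in 96-well plates. Step 2: Expose to compound for 48 hours at 5 concentrations. Step 3: Interpolate endpoints linearly; if unreached, use highest concentration. GI50 = concentration required for 50% inhibition of growth. The concentration for full growth arrest is given as TGI.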

Test systems include CAKI-1 renal; EKVX NSCLC; HS 578T breast; IGROV1 ovarian; LOX IMVI melanoma; MDA-MB-435; NCI-H460 lung; OVCAR-3 ovarian; OVCAR-5 ovarian; TK-10 renal.
Holding throughout (experiment): NCI tumour cell line growth inhibition, 48 h

For the molecule `Cc1ccc(/C=N\NC(=O)c2[nH]c3ccc(F)cc3c2-c2ccccc2)cc1`, the GI50 in the assay with CAKI-1 renal is 0.0344 µM; in the assay with EKVX NSCLC, 0.0691 µM; in the assay with HS 578T breast it was 0.0375 µM; in the assay with IGROV1 ovarian, 0.0336 µM; in the assay with LOX IMVI melanoma it was 0.0339 µM; in the assay on MDA-MB-435 it was 0.0217 µM. Moreover, the GI50 with NCI-H460 lung was 0.0345 µM; in the assay with OVCAR-3 ovarian it was 0.0261 µM; in the assay with OVCAR-5 ovarian, 0.0591 µM; in the assay on TK-10 renal, 0.0412 µM. Also, the TGI with CAKI-1 renal was 12.5 µM; in the assay on EKVX NSCLC, greater than 100 µM; in the assay with IGROV1 ovarian it was 10.7 µM; in the assay on LOX IMVI melanoma it was greater than 100 µM; in the assay on MDA-MB-435, 0.0495 µM; in the assay with NCI-H460 lung, greater than 37.9 µM. Besides, the TGI is 0.0782 µM in the assay with OVCAR-3 ovarian, greater than 100 µM with OVCAR-5 ovarian and greater than 93.3 µM in the assay on TK-10 renal.

With `O=C1CCC(N2Cc3cc(CNC(=O)C(F)(F)c4ccc(Cl)cc4)ccc3C2=O)C(=O)N1` (centres undefined), the GI50 is 40.5 µM in the assay with CAKI-1 renal; greater than 100 µM with EKVX NSCLC; 1.71 µM in the assay on HS 578T breast; 1.78 µM in the assay with IGROV1 ovarian; greater than 100 µM in the assay with LOX IMVI melanoma; greater than 100 µM in the assay on MDA-MB-435. The GI50 in the assay with NCI-H460 lung, with OVCAR-3 ovarian, in the assay with OVCAR-5 ovarian and with TK-10 renal was greater than 100 µM each time. The TGI with CAKI-1 renal, in the assay on EKVX NSCLC, in the assay on HS 578T breast, in the assay with IGROV1 ovarian, in the assay with LOX IMVI melanoma and in the assay on MDA-MB-435 was greater than 100 µM each time. Moreover, the TGI in the assay with NCI-H460 lung, in the assay on OVCAR-3 ovarian, in the assay with OVCAR-5 ovarian and in the assay on TK-10 renal was greater than 100 µM in each case.

Regarding `CN[C@@H](C)C(=O)N[C@H](C(=O)N1CCC[C@H]1C(=O)Nc1sc(-c2ncco2)nc1-c1ccccc1)C1CCCCC1`, the GI50 is 51.8 µM in the assay with CAKI-1 renal; 42.9 µM in the assay with EKVX NSCLC; 50 µM in the assay with HS 578T breast; 47.5 µM in the assay with IGROV1 ovarian; 18.5 µM in the assay on LOX IMVI melanoma; 26.3 µM in the assay with MDA-MB-435. In addition, the GI50 in the assay on NCI-H460 lung was 37.7 µM; with OVCAR-3 ovarian, 38.7 µM; in the assay on OVCAR-5 ovarian, 38 µM; with TK-10 renal it was 57.5 µM. For the same molecule, the TGI with CAKI-1 renal was greater than 100 µM; with EKVX NSCLC, greater than 100 µM; in the assay on HS 578T breast, greater than 100 µM; in the assay with IGROV1 ovarian it was greater than 100 µM; in the assay on LOX IMVI melanoma it was 34.8 µM; with MDA-MB-435, greater than 87.9 µM. Further, the TGI is greater than 100 µM in the assay on NCI-H460 lung, greater than 100 µM in the assay on OVCAR-3 ovarian, greater than 64.6 µM in the assay on OVCAR-5 ovarian and greater than 100 µM with TK-10 renal.

`COc1cccc(OC(=O)c2ccc(C(F)(F)F)nc2Nc2cc(Cl)ccc2C)c1`: the GI50 in the assay with CAKI-1 renal is 17.6 µM; in the assay with EKVX NSCLC, 6.6 µM; in the assay with HS 578T breast, 1.23 µM; in the assay on IGROV1 ovarian it was 8.35 µM; with LOX IMVI melanoma, 3.68 µM; in the assay on MDA-MB-435, 24.2 µM. The GI50 in the assay on NCI-H460 lung is 2.92 µM; in the assay on OVCAR-3 ovarian, 22.9 µM; in the assay on OVCAR-5 ovarian, 15.1 µM; in the assay on TK-10 renal, 30.7 µM. Besides, the TGI in the assay on CAKI-1 renal was 36.1 µM; in the assay on EKVX NSCLC, 39.3 µM; in the assay on HS 578T breast it was 4.79 µM; in the assay with IGROV1 ovarian, greater than 100 µM; in the assay on LOX IMVI melanoma, 23.8 µM; in the assay on MDA-MB-435, 58.2 µM. In addition, the TGI turned out to be 15.4 µM with NCI-H460 lung, 46.8 µM in the assay on OVCAR-3 ovarian, 47.4 µM in the assay with OVCAR-5 ovarian and 92 µM in the assay on TK-10 renal.

In the case of `O=S(=O)(c1ccc(Cl)cc1)C(Cl)(Cl)Cl`, the GI50 with CAKI-1 renal is 0.251 µM; with EKVX NSCLC, 4.68 µM; with HS 578T breast, 2.27 µM; in the assay on IGROV1 ovarian it was 3.08 µM; in the assay with LOX IMVI melanoma it was 1.77 µM; in the assay on MDA-MB-435, 0.908 µM. Further, the GI50 in the assay with NCI-H460 lung was 3.79 µM; in the assay on OVCAR-3 ovarian it was 0.886 µM; in the assay on OVCAR-5 ovarian it was 12.7 µM; with TK-10 renal, 9.56 µM. Moreover, the TGI was 0.879 µM in the assay on CAKI-1 renal; greater than 21.4 µM with EKVX NSCLC; 29.2 µM in the assay with HS 578T breast; 23.5 µM with IGROV1 ovarian; 6.58 µM with LOX IMVI melanoma; 4.7 µM in the assay with MDA-MB-435. Further, the TGI with NCI-H460 lung was 17 µM; in the assay with OVCAR-3 ovarian it was 4.45 µM; in the assay on OVCAR-5 ovarian it was 69.6 µM; in the assay with TK-10 renal, greater than 75.1 µM.

As for `COC1C=COC2(C)Oc3c(C)c(O)c4c(c3C2=O)/C(=N/C2CCC(O)OC2C)C=C(NC(=O)/C(C)=C\C(=O)C2CC2C(O)C(C)C(O)C(C)C(OC(C)=O)C1C)C4=O` (centres undefined), the TGI in the assay on CAKI-1 renal amounted to 9.92 µM; in the assay with EKVX NSCLC, 8.75 µM; in the assay on HS 578T breast, 8.38 µM; in the assay with IGROV1 ovarian, 6.13 µM; in the assay on LOX IMVI melanoma, 3.24 µM; with MDA-MB-435, 3.64 µM. The TGI came to 11.5 µM with NCI-H460 lung, 5.21 µM in the assay on OVCAR-3 ovarian, 8.45 µM in the assay on OVCAR-5 ovarian and 7.25 µM with TK-10 renal.

Regarding `COc1ccc(-c2cc(-c3ccc(C)cc3)nc3nc(=S)[nH]c(N)c23)cc1`, the GI50 is 23.2 µM with CAKI-1 renal; 25.8 µM with EKVX NSCLC; 17.9 µM with HS 578T breast; 28.2 µM in the assay on IGROV1 ovarian; 17.7 µM with LOX IMVI melanoma; 17.6 µM in the assay with MDA-MB-435. Further, the GI50 in the assay with NCI-H460 lung was 12 µM; with OVCAR-3 ovarian, 13.6 µM; in the assay on OVCAR-5 ovarian it was 39.3 µM; in the assay with TK-10 renal, 22.8 µM. Besides, the TGI is 54.2 µM in the assay on CAKI-1 renal; 96 µM with EKVX NSCLC; 46.9 µM in the assay on HS 578T breast; 78.4 µM in the assay with IGROV1 ovarian; 34.5 µM in the assay on LOX IMVI melanoma; 36.9 µM with MDA-MB-435. Besides, the TGI with NCI-H460 lung came to 27.5 µM; in the assay with OVCAR-3 ovarian it was 30.4 µM; in the assay on OVCAR-5 ovarian it was 96.9 µM; in the assay on TK-10 renal, 57.5 µM.

For the molecule `CC(=O)/C=C/c1cn(C(=O)OC(C)(C)C)c2ccc(Br)cc12`, the GI50 is 22.1 µM with CAKI-1 renal; 24.5 µM with EKVX NSCLC; 26.8 µM in the assay with HS 578T breast; 15.9 µM with IGROV1 ovarian; 10.7 µM in the assay with LOX IMVI melanoma; 9.97 µM in the assay on MDA-MB-435. In addition, the GI50 is 17 µM in the assay on NCI-H460 lung, 13 µM with OVCAR-3 ovarian, 25.6 µM in the assay with OVCAR-5 ovarian and 17.6 µM with TK-10 renal. For the same molecule, the TGI in the assay with CAKI-1 renal turned out to be 42.5 µM; in the assay on EKVX NSCLC, 84.3 µM; in the assay on HS 578T breast, 65.4 µM; in the assay with IGROV1 ovarian it was 39.5 µM; in the assay with LOX IMVI melanoma, 25.2 µM; in the assay on MDA-MB-435 it was 25.9 µM. The TGI came to 36.4 µM with NCI-H460 lung, 28.3 µM in the assay with OVCAR-3 ovarian, 53.9 µM in the assay with OVCAR-5 ovarian and 33.9 µM with TK-10 renal.
